The record followed here is PubChem BioAssay (NCI).

Each structure is given as a SMILES string.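 How tested: cells in 96-well plates exposed to compound for 48 hours at five concentrations. Abbreviation: GI50, concentration required for 50% inhibition of growth. TGI: concentration producing complete growth inhibition.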

The test system of the first assay is DU-145 prostate. The assay can be described thus: NCI-60 cell line screen, 48 h.
As for `O=C(O)c1cc([N+](=O)[O-])cc2c(=O)c3cnccc3[nH]c12`, the TGI was above 100 µM.
Turning to `CCCCCCCCCCCCCCCCCCOc1ccccc1CC(=O)OCC[N+]1(C)CCCCC1`, the GI50 is 3.02 µM and the TGI was determined as 9.61 µM.
As for `Nc1ncnc2c1ncn2C=C=CCO`, the TGI is above 100 µM.
On the same count and under the same terms, to `C[C@]12C=CC(=O)C=C1CC[C@@H]1[C@@H]2CC[C@]2(C)OC(=O)CC[C@@H]12` belongs above 500 µM.

The test system of the next assay is XF 498 CNS. The assay can be described thus: NCI-60 cell line screen, 48 h.
`CN1CCc2[nH]c3ccccc3c2C1` registered a TGI above 100 µM.
Regarding `C[C@]12C=CC(=O)C=C1CC[C@@H]1[C@@H]2CC[C@]2(C)OC(=O)CC[C@@H]12`, the TGI worked out at 373 µM.
`Nc1ncnc2nc[nH]c12` yielded a TGI of 20.8 µM.
On to `CCOc1ccc(NC(=O)C(=O)CC(=O)c2sc(NNC(C)=O)nc2C)cc1`, for which the TGI is above 100 µM.

The next assay relates to MDA-MB-231 breast. The assay can be described thus: NCI-60 cell line screen, 48 h.
For the compound `O=C(O)c1cc([N+](=O)[O-])cc2c(=O)c3cnccc3[nH]c12`, the TGI was above 100 µM.
Take `CCCCCCCCCCCCCCCCCCOc1ccccc1CC(=O)OCC[N+]1(C)CCCCC1`: the GI50 was 1.83 µM and the TGI was determined as 3.89 µM.
For the compound `Nc1ncnc2c1ncn2C=C=CCO`, the TGI was above 100 µM.
For `C[C@]12C=CC(=O)C=C1CC[C@@H]1[C@@H]2CC[C@]2(C)OC(=O)CC[C@@H]12`, the TGI is above 500 µM.
In the case of `CN1CCOC(c2ccc(Cl)cc2)O1` (configuration not stated), the TGI was above 100 µM.

The next assay deals with KM20L2 colon. The assay can be described thus: NCI-60 cell line screen, 48 h.
`CN1CCc2[nH]c3ccccc3c2C1` displayed a TGI above 100 µM.
On to `C[C@]12C=CC(=O)C=C1CC[C@@H]1[C@@H]2CC[C@]2(C)OC(=O)CC[C@@H]12`, for which the TGI was above 470 µM.
As to `Nc1ncnc2nc[nH]c12`, the TGI is above 250 µM.
The compound `CCOc1ccc(NC(=O)C(=O)CC(=O)c2sc(NNC(C)=O)nc2C)cc1` returned a TGI above 100 µM.

A further assay has as its system MDA-N. Description: NCI-60 cell line screen, 48 h.
For `O=C(O)c1cc([N+](=O)[O-])cc2c(=O)c3cnccc3[nH]c12`, the TGI was above 100 µM.
The same measure, in the same setting: the figure for `C[C@]12C=CC(=O)C=C1CC[C@@H]1[C@@H]2CC[C@]2(C)OC(=O)CC[C@@H]12` is above 500 µM; for `CN1CCOC(c2ccc(Cl)cc2)O1` (configuration not stated) it is above 100 µM.

For a further assay, the system named is DMS 273 small cell lung. The assay can be described thus: NCI-60 cell line screen, 48 h.
Regarding `CN1CCc2[nH]c3ccccc3c2C1`, the TGI is above 100 µM.
On the same count and under the same terms, the figure for `C[C@]12C=CC(=O)C=C1CC[C@@H]1[C@@H]2CC[C@]2(C)OC(=O)CC[C@@H]12` is above 500 µM; for `Nc1ncnc2nc[nH]c12` it is above 206 µM; for `CCOc1ccc(NC(=O)C(=O)CC(=O)c2sc(NNC(C)=O)nc2C)cc1` it is above 100 µM.

A further assay concerns PC-3 prostate. The assay can be described thus: NCI-60 cell line screen, 48 h.
`O=C(O)c1cc([N+](=O)[O-])cc2c(=O)c3cnccc3[nH]c12` gave a TGI above 100 µM.
As to `Nc1ncnc2c1ncn2C=C=CCO`, the TGI is above 100 µM.
Regarding `C[C@]12C=CC(=O)C=C1CC[C@@H]1[C@@H]2CC[C@]2(C)OC(=O)CC[C@@H]12`, the TGI is above 500 µM.
Compound `CN1CCOC(c2ccc(Cl)cc2)O1` (configuration not stated) had a TGI above 100 µM.

A further assay has as its system SNB-78 CNS. The assay can be described thus: NCI-60 cell line screen, 48 h.
In turn, `CN1CCc2[nH]c3ccccc3c2C1` registered a TGI above 100 µM.
In turn, `C[C@]12C=CC(=O)C=C1CC[C@@H]1[C@@H]2CC[C@]2(C)OC(=O)CC[C@@H]12` displayed a TGI above 500 µM.
On the same count and under the same terms, to `Nc1ncnc2nc[nH]c12` belongs above 158 µM; to `CCOc1ccc(NC(=O)C(=O)CC(=O)c2sc(NNC(C)=O)nc2C)cc1`, above 100 µM.

The next assay relates to BT-549 breast. The assay can be described thus: NCI-60 cell line screen, 48 h.
As to `O=C(O)c1cc([N+](=O)[O-])cc2c(=O)c3cnccc3[nH]c12`, the TGI was above 100 µM.
Consider `CCCCCCCCCCCCCCCCCCOc1ccccc1CC(=O)OCC[N+]1(C)CCCCC1`, for which the GI50 is 2.65 µM and the TGI turned out to be 7.1 µM.
Compound `Nc1ncnc2c1ncn2C=C=CCO` returned a TGI above 100 µM.
Still for that read-out and setting: to `C[C@]12C=CC(=O)C=C1CC[C@@H]1[C@@H]2CC[C@]2(C)OC(=O)CC[C@@H]12` belongs above 500 µM; to `CN1CCOC(c2ccc(Cl)cc2)O1` (configuration not stated), above 100 µM.

Another assay deals with M19-MEL melanoma. The assay can be described thus: NCI-60 cell line screen, 48 h.
The compound `CN1CCc2[nH]c3ccccc3c2C1` had a TGI above 100 µM.
In turn, `Nc1ncnc2nc[nH]c12` yielded a TGI above 250 µM.
Turning to `CCOc1ccc(NC(=O)C(=O)CC(=O)c2sc(NNC(C)=O)nc2C)cc1`, the TGI is above 100 µM.

The test system of another assay is A549 NSCLC. Description: NCI-60 cell line screen, 48 h.
For `CN1CCc2[nH]c3ccccc3c2C1`, the TGI is above 100 µM.
On the same count and under the same terms, to `C[C@]12C=CC(=O)C=C1CC[C@@H]1[C@@H]2CC[C@]2(C)OC(=O)CC[C@@H]12` belongs 478 µM.
Regarding `Nc1ncnc2nc[nH]c12`, the GI50 was 75.6 µM and the TGI is above 250 µM.
`CN1CCOC(c2ccc(Cl)cc2)O1` (configuration not stated) gave a TGI above 100 µM.
In turn, `CCOc1ccc(NC(=O)C(=O)CC(=O)c2sc(NNC(C)=O)nc2C)cc1` displayed a TGI above 100 µM.

A further assay relates to ACHN renal. The assay can be described thus: NCI-60 cell line screen, 48 h.
As for `CCCCCCCCCCCCCCCCCCOc1ccccc1CC(=O)OCC[N+]1(C)CCCCC1`, the GI50 was 5.01 µM and the TGI was determined as 25.8 µM.
Turning to `C[C@]12C=CC(=O)C=C1CC[C@@H]1[C@@H]2CC[C@]2(C)OC(=O)CC[C@@H]12`, the TGI is above 500 µM.
The compound `CN1CCOC(c2ccc(Cl)cc2)O1` (configuration not stated) registered a TGI above 100 µM.
Compound `CCOc1ccc(NC(=O)C(=O)CC(=O)c2sc(NNC(C)=O)nc2C)cc1` returned a TGI above 100 µM.

The subject of a further assay is T-47D breast. The assay can be described thus: NCI-60 cell line screen, 48 h.
`O=C(O)c1cc([N+](=O)[O-])cc2c(=O)c3cnccc3[nH]c12` returned a TGI above 100 µM.
Consider `CCCCCCCCCCCCCCCCCCOc1ccccc1CC(=O)OCC[N+]1(C)CCCCC1`, for which the GI50 was 2.49 µM and the TGI stood at 9.37 µM.
Regarding `Nc1ncnc2c1ncn2C=C=CCO`, the TGI is above 100 µM.
`C[C@]12C=CC(=O)C=C1CC[C@@H]1[C@@H]2CC[C@]2(C)OC(=O)CC[C@@H]12` came in with a TGI above 500 µM.

A further assay has as its system SN12K1 renal. The assay can be described thus: NCI-60 cell line screen, 48 h.
In the case of `CN1CCc2[nH]c3ccccc3c2C1`, the TGI was above 100 µM.
Regarding `C[C@]12C=CC(=O)C=C1CC[C@@H]1[C@@H]2CC[C@]2(C)OC(=O)CC[C@@H]12`, the TGI was 498 µM.
As for `Nc1ncnc2nc[nH]c12`, the TGI was above 250 µM.
